Data taken from patent publication US20250230193A1, “CYCLIC COMPOUND HAVING SELECTIVE KRAS INHIBITORY EFFECT ON HRAS AND NRAS” (CHUGAI SEIYAKU KABUSHIKI KAISHA, priority 2022, published 2025).

Tests used:
[1] = target: GDP-bound HRAS wild-type protein (Homo sapiens, UniProt P01112); test: Binding to HRAS by surface plasmon resonance (SPR), Single Cycle Kinetics; conditions: SPR; KD ratio class
[2] = target: GDP-bound NRAS wild-type protein (Homo sapiens, UniProt P01111); test: Binding to NRAS by surface plasmon resonance (SPR), Single Cycle Kinetics; conditions: SPR; KD ratio class
[3] = tested on: human lung cancer strain NCI-H441; test: cells; conditions: NCI-H441, 96 h, read-out: NCI-H441 IC50 (nM)

GDP-bound HRAS wild-type protein, sequence (P01112 whole entry): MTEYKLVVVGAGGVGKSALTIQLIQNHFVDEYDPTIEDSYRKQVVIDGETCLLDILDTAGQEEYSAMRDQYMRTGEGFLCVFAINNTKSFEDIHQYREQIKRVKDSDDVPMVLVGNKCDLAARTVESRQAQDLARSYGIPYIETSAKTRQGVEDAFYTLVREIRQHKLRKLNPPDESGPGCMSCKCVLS
GDP-bound NRAS wild-type protein, sequence (P01111 whole entry): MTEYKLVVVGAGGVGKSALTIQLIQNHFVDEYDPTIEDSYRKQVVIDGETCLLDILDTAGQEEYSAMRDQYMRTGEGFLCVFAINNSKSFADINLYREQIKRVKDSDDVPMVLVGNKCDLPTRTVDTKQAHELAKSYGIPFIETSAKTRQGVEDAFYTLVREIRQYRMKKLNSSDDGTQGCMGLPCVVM

Compound | HRAS/KRAS (ratio of KD value for GDP-bound HRAS wild-type protein to KD value for KRAS) [1] | NRAS/KRAS (ratio of KD value for GDP-bound NRAS wild-type protein to KD value for KRAS) [2] | IC50 [3]
CCO[C@@H]1C[C@H]2C(=O)NC3(CCC3)C(=O)N(C)[C@@H](C(CC)CC)C(=O)N(C)[C@H](C(=O)N(C)C)CC(=O)N(C)[C@@H](CC(C)C)C(=O)N[C@@H]([C@@H](C)CC)C(=O)N(C)CC(=O)N(C)[C@H]3C/C=C\CCN(C3=O)[C@@H](Cc3ccc(C(F)(F)F)cc3)C(=O)N(C)CC(=O)N[C@@H](CCc3ccc(C(F)(F)F)c(OC)c3)C(=O)N2C1 [PP1209] | A (a compound having 10 or more and less than 20 is denoted as A) | AA (a compound having 20 or more is denoted as AA) | 15.9 nM
CC[C@H](C)[C@@H]1NC(=O)[C@H](CC2CC2)N(C)C(=O)C[C@@H](C(=O)N(CC)CC)N(C)C(=O)[C@H](C2CCCC2)N(C)C(=O)C2(CC(C)(C)C2)NC(=O)[C@@H]2C[C@@H](F)CN2C(=O)[C@H](CCc2cc(F)c(C(F)(F)F)c(F)c2)NC(=O)CN(C)C(=O)[C@H](Cc2ccc(C(F)(F)F)cc2)N2CC/C=C\C[C@@H](C2=O)N(C)C(=O)CN(C)C1=O [PP1571] | A (a compound having 10 or more and less than 20 is denoted as A) | A (a compound having 10 or more and less than 20 is denoted as A) | 6.8 nM
CCO[C@@H]1C[C@H]2C(=O)NC3(CCC3)C(=O)N(C)[C@@H](C3CCCC3)C(=O)N(C)[C@H](C(=O)N(C)C)CC(=O)N(C)[C@@H](CC3CC3)C(=O)N[C@@H]([C@@H](C)CC)C(=O)N(C)CC(=O)N(C)[C@H]3C/C=C\CCN(C3=O)[C@@H](CC3CCCCC3)C(=O)N(C)CC(=O)N[C@@H](CCc3cc(F)c(C(F)(F)F)c(F)c3)C(=O)N2C1 [PP1446] | A (a compound having 10 or more and less than 20 is denoted as A) | A (a compound having 10 or more and less than 20 is denoted as A) | 32 nM
CCO[C@@H]1C[C@H]2C(=O)NC3(CCC3)C(=O)N(C)[C@@H](C3CCCC3)C(=O)N(C)[C@H](C(=O)N3CCOCC3)CC(=O)N(C)[C@@H](CC)C(=O)N[C@@H]([C@@H](C)CC)C(=O)N3CC[C@H]3C(=O)N(C)[C@H]3C[C@@H](C)[C@@H](C)CN(C3=O)[C@@H](Cc3ccc(C(F)(F)F)cc3)C(=O)N(C)CC(=O)N[C@@H](CCc3cc(F)c(C(F)(F)F)c(F)c3)C(=O)N2C1 [PP1351] | B (a compound having 3 or more and less than 10 is denoted as B) | A (a compound having 10 or more and less than 20 is denoted as A) | 12.8 nM
CCO[C@@H]1C[C@H]2C(=O)NC3(CCCC3)C(=O)N(C)[C@@H](C3CCCC3)C(=O)N(C)[C@H](C(=O)N3CCOCC3)CC(=O)N(C)[C@@H](CC)C(=O)N[C@@H]([C@@H](C)CC)C(=O)N(C)CC(=O)N(C)[C@H]3C[C@@H](C)[C@@H](C)CN(C3=O)[C@@H](Cc3ccc(C(F)(F)F)cc3)C(=O)N(C)CC(=O)N[C@@H](CCc3cc(F)c(C(F)(F)F)c(F)c3)C(=O)N2C1 [PP1353] | B (a compound having 3 or more and less than 10 is denoted as B) | A (a compound having 10 or more and less than 20 is denoted as A) | 3.7 nM
